pIC50, pKi: −log10 of the molar value. Like-named read-outs stand apart in the source and are kept apart here.
Key:
[1] = target: SARS-CoV-2 NSP3 macrodomain (Mac1) (Severe acute respiratory syndrome coronavirus 2, UniProt P0DTD1); assay: biochemical; assay type: binding; conditions: for pIC50 / pKi: dose-response
[2] = target: SARS-CoV-2 NSP3 macrodomain (Mac1), P43 crystal form (Severe acute respiratory syndrome coronavirus 2, UniProt P0DTD1); assay type: binding; conditions: for Number of isomers bound: ligand modeling in Mac1 crystal soak; for Isomers modeled: stereoisomer(s) of ligand modeled in Mac1 crystal structure
[3] = SARS CoV-2 macrodomain HTRF assay
[4] = SARS CoV-2 macrodomain HTRF assay, read-out: IC50
[5] = SARS CoV-2 macrodomain HTRF assay, read-out: Ki
[6] = Single dose, concentration 200 μM, read-out: Average % competition
[7] = preliminary screen, compound at 200 μM, mean of 3-4 technical replicates, read-out: % competition in HTRF assay
[8] = Single dose, concentration 200 μM, read-out: SARS CoV-2 macrodomain HTRF assay: Average % competition
[9] = read-out: SARS CoV-2 macrodomain HTRF assay: IC50
[10] = read-out: SARS CoV-2 macrodomain HTRF assay: Ki
[11] = from SARS CoV-2 macrodomain HTRF assay

O=C(O)C(F)(F)F.OCC1(Nc2ncnc3[nH]ccc23)CCC1 [AVI-3670]
Ligand efficiency (binding enery per heavy atom) [1, 3]: 0.38 | pIC50 [1, 4]: 4.41 | pKi [1, 5]: 4.44 | PanDDA run, TFA/DMSO background map: 1-BDC ([2]; crystal soak 10 mM): 0.12 | PanDDA run, TFA/DMSO background map: Hit ([2]; crystal soak 10 mM): TRUE | Number of isomers bound [2]: 1 | Isomers modeled [2]: achiral,achiral

CN(C)CC(CO)Nc1ncnc2[nH]ccc12 (stereo not shown) [AVI-3671]
inhibition at 200 µM [1, 6]: < 10% | inhibition at 200 µM [1, 7]: < 10% | PanDDA run, TFA/DMSO background map: 1-BDC ([2]; crystal soak 10 mM): 0.13 | PanDDA run, TFA/DMSO background map: Hit ([2]; crystal soak 10 mM): TRUE | Number of isomers bound [2]: 1

OCC(Cc1nccs1)Nc1ncnc2[nH]ccc12 (stereo not shown) [AVI-3673]
inhibition at 200 µM [1, 6]: 38% | inhibition at 200 µM [1, 7]: 38% | PanDDA run, TFA/DMSO background map: 1-BDC ([2]; crystal soak 10 mM): 0.15 | PanDDA run, TFA/DMSO background map: Hit ([2]; crystal soak 10 mM): TRUE | Number of isomers bound [2]: 1

Cc1ccccc1CC(CO)Nc1ncnc2[nH]ccc12 (stereo not shown) [AVI-3674]
inhibition at 200 µM [1, 6]: 32% | PanDDA run, TFA/DMSO background map: 1-BDC ([2]; crystal soak 10 mM): 0.15 | PanDDA run, TFA/DMSO background map: Hit ([2]; crystal soak 10 mM): TRUE | Number of isomers bound [2]: 1

OCC(CN1CCCCC1)Nc1ncnc2[nH]ccc12 (stereo not shown) [AVI-3677]
inhibition at 200 µM [1, 6]: < 10% | inhibition at 200 µM [1, 7]: < 10% | PanDDA run, TFA/DMSO background map: 1-BDC ([2]; crystal soak 10 mM): 0.18 | PanDDA run, TFA/DMSO background map: Hit ([2]; crystal soak 10 mM): TRUE | Number of isomers bound [2]: 1

OCC(Nc1ncnc2[nH]ccc12)C1CCOC1 (stereo not shown) [AVI-3679]
inhibition at 200 µM [1, 6]: 35% | inhibition at 200 µM [1, 7]: 35% | PanDDA run, TFA/DMSO background map: 1-BDC ([2]; crystal soak 10 mM): 0.11 | PanDDA run, TFA/DMSO background map: Hit ([2]; crystal soak 10 mM): TRUE | Number of isomers bound [2]: 1

O=C(O)C(F)(F)F.OCC12CC(CN1c1ncnc3[nH]ccc13)C2 [AVI-3681]
inhibition at 200 µM [1, 8]: 54% | inhibition at 200 µM [1, 7]: 54% | PanDDA run, TFA/DMSO background map: 1-BDC ([2]; crystal soak 10 mM): 0.12 | PanDDA run, TFA/DMSO background map: Hit ([2]; crystal soak 10 mM): TRUE | Number of isomers bound [2]: 1 | Isomers modeled [2]: achiral

Cc1ccc(CC(CO)Nc2ncnc3[nH]ccc23)cc1 (stereo not shown) [AVI-3683]
inhibition at 200 µM [1, 6]: 14% | inhibition at 200 µM [1, 7]: 14% | Number of isomers bound [2]: 2 | Isomers modeled [2]: S,R

Cc1ccc(CC(CO)Nc2ncnc3[nH]ccc23)cc1C (stereo not shown) [AVI-3684]
inhibition at 200 µM [1, 6]: < 10% | inhibition at 200 µM [1, 7]: < 10% | Number of isomers bound [2]: 2 | Isomers modeled [2]: R,S

OCC1CCCN1c1ncnc2[nH]ccc12 (stereo not shown) [AVI-3685]
fold decrease in affinity compared to AVI-607 ([1]; HTRF): > 20 fold | inhibition at 200 µM [1, 8]: 47% | inhibition at 200 µM [1, 7]: 48% | Number of isomers bound [2]: 1

OCC(Cc1ccc(I)cc1)Nc1ncnc2[nH]ccc12 (stereo not shown) [AVI-3686]
inhibition at 200 µM [1, 6]: < 10% | inhibition at 200 µM [1, 7]: < 10% | PanDDA run, TFA/DMSO background map: 1-BDC ([2]; crystal soak 10 mM): 0.19 | PanDDA run, TFA/DMSO background map: Hit ([2]; crystal soak 10 mM): TRUE | Number of isomers bound [2]: 2 | Isomers modeled [2]: S,R

O=C(O)C(F)(F)F.OCC1(Nc2ncnc3[nH]ccc23)CC1 [AVI-3688]
inhibition at 200 µM [1, 6]: 72% | inhibition at 200 µM [1, 7]: 72% | PanDDA run, TFA/DMSO background map: 1-BDC ([2]; crystal soak 10 mM): 0.17 | PanDDA run, TFA/DMSO background map: Hit ([2]; crystal soak 10 mM): TRUE | Number of isomers bound [2]: 1 | Isomers modeled [2]: achiral

OCC(CC1CCCCC1)Nc1ncnc2[nH]ccc12 (stereo not shown) [AVI-3690]
inhibition at 200 µM [1, 6]: 66% | inhibition at 200 µM [1, 7]: 68% | Number of isomers bound [2]: 1

OCC(CC1CCCC1)Nc1ncnc2[nH]ccc12 (stereo not shown) [AVI-3691]
inhibition at 200 µM [1, 6]: 52% | inhibition at 200 µM [1, 7]: 53% | PanDDA run, TFA/DMSO background map: 1-BDC ([2]; crystal soak 10 mM): 0.1 | PanDDA run, TFA/DMSO background map: Hit ([2]; crystal soak 10 mM): TRUE | Number of isomers bound [2]: 1

O=C(O)C(F)(F)F.OCC1(Nc2ncnc3[nH]ccc23)CCCC1 [AVI-3692]
Ligand efficiency (binding enery per heavy atom) [1, 3]: 0.35 | pIC50 [1, 4]: 4.31 | pKi [1, 5]: 4.34 | PanDDA run, TFA/DMSO background map: 1-BDC ([2]; crystal soak 10 mM): 0.11 | PanDDA run, TFA/DMSO background map: Hit ([2]; crystal soak 10 mM): TRUE | Number of isomers bound [2]: 1 | Isomers modeled [2]: achiral

OCC(Nc1ncnc2[nH]ccc12)C1CCc2ccccc21 (stereo not shown) [AVI-3693]
inhibition at 200 µM [1, 6]: 78% | inhibition at 200 µM [1, 7]: 78% | Number of isomers bound [2]: 2 | Isomers modeled [2]: RR,SR

CCC(CC)(CO)Nc1ncnc2[nH]ccc12 [AVI-3695]
Ligand efficiency (binding enery per heavy atom) [1, 3]: 0.36 | pIC50 [1, 4]: 4.40 | pKi [1, 5]: 4.43 | Number of isomers bound [2]: 1 | Isomers modeled [2]: achiral,achiral

OCC(Cc1ccccn1)Nc1ncnc2[nH]ccc12 (stereo not shown) [AVI-3696]
inhibition at 200 µM [1, 6]: 34% | inhibition at 200 µM [1, 7]: 34% | Number of isomers bound [2]: 2 | Isomers modeled [2]: R,S

CCC(C)(CO)Nc1ncnc2[nH]ccc12 (stereo not shown) [AVI-3697]
Ligand efficiency (binding enery per heavy atom) [1, 3]: 0.39 | pIC50 [1, 4]: 4.44 | pKi [1, 5]: 4.47 | Number of isomers bound [2]: 1

OCC(O)C1CCCN1c1ncnc2[nH]ccc12 (stereo not shown) [AVI-3701]
inhibition at 200 µM [1, 8]: 54% | inhibition at 200 µM [1, 7]: 54% | Number of isomers bound [2]: 1 | PanDDA run, TFA/DMSO background map: 1-BDC ([2]; soak concentration 10 mM): 0.16 | PanDDA run, TFA/DMSO background map: Hit ([2]; soak concentration 10 mM): TRUE

O=C(O)C(F)(F)F.OC[C@H]1CC2(CN1c1ncnc3[nH]ccc13)OCCO2 [AVI-3702]
inhibition at 200 µM [1, 8]: 17% | inhibition at 200 µM [1, 7]: 17% | Number of isomers bound [2]: 1 | PanDDA run, TFA/DMSO background map: 1-BDC ([2]; soak concentration 10 mM): 0.13 | PanDDA run, TFA/DMSO background map: Hit ([2]; soak concentration 10 mM): TRUE

OCC(Cc1cncs1)Nc1ncnc2[nH]ccc12 (stereo not shown) [AVI-3703]
inhibition at 200 µM [1, 6]: 28% | inhibition at 200 µM [1, 7]: 28% | Number of isomers bound [2]: 1 | PanDDA run, TFA/DMSO background map: 1-BDC ([2]; soak concentration 10 mM): 0.1 | PanDDA run, TFA/DMSO background map: Hit ([2]; soak concentration 10 mM): TRUE

CC1(C)C[C@@H](CO)N(c2ncnc3[nH]ccc23)C1.O=C(O)C(F)(F)F [AVI-3704]
pIC50 [1, 9]: 4.54 | pKi [1, 10]: 4.57 | Ligand efficiency (binding enery per heavy atom) [1, 11]: 0.35 | Number of isomers bound [2]: 1

OCC(Cc1ccoc1)Nc1ncnc2[nH]ccc12 (stereo not shown) [AVI-3705]
inhibition at 200 µM [1, 6]: 64% | inhibition at 200 µM [1, 7]: 64% | Number of isomers bound [2]: 1 | PanDDA run, TFA/DMSO background map: 1-BDC ([2]; soak concentration 10 mM): 0.14 | PanDDA run, TFA/DMSO background map: Hit ([2]; soak concentration 10 mM): TRUE

OCC1CC2(CCOCC2)CN1c1ncnc2[nH]ccc12 (stereo not shown) [AVI-3707]
inhibition at 200 µM [1, 8]: 39% | inhibition at 200 µM [1, 7]: 39% | Number of isomers bound [2]: 1 | PanDDA run, TFA/DMSO background map: 1-BDC ([2]; soak concentration 10 mM): 0.15 | PanDDA run, TFA/DMSO background map: Hit ([2]; soak concentration 10 mM): TRUE

OCC1CC2(CCCC2)CN1c1ncnc2[nH]ccc12 (stereo not shown) [AVI-3708]
pIC50 [1, 9]: 4.57 | pKi [1, 10]: 4.60 | Ligand efficiency (binding enery per heavy atom) [1, 11]: 0.32 | Number of isomers bound [2]: 1

OCC(COCc1ccccc1)Nc1ncnc2[nH]ccc12 (stereo not shown) [AVI-3709]
inhibition at 200 µM [1, 6]: 29% | inhibition at 200 µM [1, 7]: 29% | Number of isomers bound [2]: 2 | PanDDA run, TFA/DMSO background map: 1-BDC ([2]; soak concentration 10 mM): 0.16 | PanDDA run, TFA/DMSO background map: Hit ([2]; soak concentration 10 mM): TRUE | Isomers modeled [2]: S,R

O=C(O)C(F)(F)F.OC[C@@H]1CC2(CC2)CN1c1ncnc2[nH]ccc12 [AVI-3710]
inhibition at 200 µM [1, 8]: 57% | inhibition at 200 µM [1, 7]: 57% | Number of isomers bound [2]: 1 | PanDDA run, TFA/DMSO background map: 1-BDC ([2]; soak concentration 10 mM): 0.23 | PanDDA run, TFA/DMSO background map: Hit ([2]; soak concentration 10 mM): TRUE | Isomers modeled [2]: S,S

OCC(Cc1cccs1)Nc1ncnc2[nH]ccc12 (stereo not shown) [AVI-3711]
inhibition at 200 µM [1, 6]: 63% | inhibition at 200 µM [1, 7]: 63% | Number of isomers bound [2]: 1 | PanDDA run, TFA/DMSO background map: 1-BDC ([2]; soak concentration 10 mM): 0.16 | PanDDA run, TFA/DMSO background map: Hit ([2]; soak concentration 10 mM): TRUE

OCC1C2CCC(C2)N1c1ncnc2[nH]ccc12 (stereo not shown) [AVI-3713]
pIC50 [1, 9]: 4.57 | pKi [1, 10]: 4.60 | Ligand efficiency (binding enery per heavy atom) [1, 11]: 0.35 | Number of isomers bound [2]: 1 | Isomers modeled [2]: SSR

From doi:10.1101/2024.08.25.609621 (bioRxiv, 2024)
